Results taken from US12358966B2, “Inducible caspases and methods for use” (Poseida Therapeutics, Inc., priority 2016, dated 2025).
Like-named read-outs stand apart in the source and are kept apart here.

How the values were obtained:
cells [1] = experiment: Amount of AP1903 needed in vitro for effective signaling of cells; type: cell-based; details: calculated with 1600 Da MW
Description: The fixed dose of AP1903 (Rimiducid) for injection used, for example, may be 0.4 mg/kg intravenously infused over 2 hours. The amount of AP1903 (Rimiducid) needed in vitro for effective signaling of cells is 10-100 nM (1600 Da MW). This equates to 16-160 μg/L or […]. Doses up to 1 mg/kg were well-tolerated in the Phase I study of AP1903 (Rimiducid) described above. Therefore, 0.4 mg/kg may be a safe and effective dose of AP1903 (Rimiducid) for this Phase I study in combination with the therapeutic cells.

Human pan T-cells = experiment: iC9 safety switch test: viability of modified T cells by flow cytometry with 7-AAD after incubation with AP1903; type: cell-based; details: 24 hours incubation, 0-1000 nM tested
Excerpt: Human pan T-cells were nucleofected using an Amaxa 4D nucleofector with one of four piggyBac transposons. Modified T cells receiving the “mock” condition were nucleofected with an empty piggyBac transposon. Modified T cells received either a piggyBac […] containing a therapeutic agent alone (a sequence encoding a CARTyrin) or a piggyBac […] containing an integrated iC9 sequence and a therapeutic agent (a sequence encoding a CARTyrin).
To test the iC9 safety switch, each of the four modified T cells were incubated for 24 hours with 0, 0.1 nM, 1 nM, 10 nM, 100 nM or 1000 nM AP1903 (an induction agent for […], also known as Rimiducid). Viability was assessed by flow cytometry using 7-aminoactinomycin D (7-AAD), a fluorescent intercalator, as a marker for cells undergoing apoptosis.
Cell viability was assessed at day 12 (see FIG. 2). […] Moreover, cell viability was assessed at day 19 (see FIG. 3). […]
A quantification of the aggregated results was performed and is provided in FIG. 4, showing the significant impact of the iC9 safety switch on the percent cell viability as a function of the concentration of the induction agent (AP1903, also known as Rimiducid) of the iC9 switch for each modified cell type at either day 12 (FIG. 2 and left graph) or day 19 (FIG. 3 and right graph).

[2] = tested on: cells comprising P-BCMA-101; experiment: In vivo killing of cells comprising P-BCMA-101 via iC9 safety switch in NSG mice (huCD45+ cells in blood, spleen, bone marrow); details: AP1903 0.005-5 mg/kg on day 12, analysis 24 hours later
Description: FIG. 5 is a diagram showing a study timeline and outline for an in vivo study. NSG mice were IV injected with MM.1S/luciferase^+ cells, staged at day 8, injected with T cells on day 9, and treated with AP1903 (Rimiducid) on day 12 at the indicated doses. 24 hours later, mice were euthanized and blood, spleen, and bone marrow cells were collected and stained for the presence of huCD45^+ cells.
Blood, spleen, and bone marrow cells were analyzed by flow cytometry for the presence of huCD45^+ cells. The relative viability was determined by: ((#of huCD45 cells/ #of msCD45 cells)/(Average of huCD45/msCD45 in no treatment group))*100% per 1,500 bead events for each sample. Each data point represents a different mouse. On the x-axis is plotted percent Relative CAR-T Viability from 0 to 175 in increments of 25. […]
NSG mice were IV injected with MM.1S/luciferase^+ cells, staged at day 8, injected with T cells on day 9, and treated with AP1903 (Rimiducid) on day 12 at the indicated doses. […] Blood, spleen, and bone marrow cells were analyzed by flow cytometry for the presence of huCD45^+ cells. The relative viability was determined by dividing the number of huCD45 cells by the number of msCD45 cells and normalizing to the average of huCD45/msCD45 in the no treatment group times, 100% per 1,500 bead events for each sample. […]

cells [3] = details: cited from earlier work
[4] = cited from earlier work

SMILES: CC[C@H](C(=O)N1CCCC[C@H]1C(=O)O[C@H](CCc1ccc(OC)c(OC)c1)c1cccc(OCC(=O)NCCNC(=O)COc2cccc([C@@H](CCc3ccc(OC)c(OC)c3)OC(=O)[C@@H]3CCCCN3C(=O)[C@@H](CC)c3cc(OC)c(OC)c(OC)c3)c2)c1)c1cc(OC)c(OC)c(OC)c1 (relative stereo) [AP1903, 2-Piperidinecarboxylic acid, 1-[(2S)-1-oxo-2-(3,4,5-trimethoxyphenyl)butyl]-, 1,2-ethanediylbis[imino (2-oxo-2,1-ethanediyl)oxy-3,1-phenylene[(1R)-3-(3,4-dimethoxyphenyl)propylidene]]ester, [2S-[1(R*),2R*[S*[S*[1(R*),2R*]]]]]-(9C1)]
- amount needed for effective signaling, converted to dose (cells [1]): 0.016 to 1.6 µg/kg
- amount needed for effective signaling, converted to mass concentration (cells [1]): 16 to 160 µg/L
- lowest concentration of the study at which apoptosis is induced (Human pan T-cells): 0.1 nM
- killing of cells comprising P-BCMA-101 in vivo [2]: highly efficient killing
- amount needed in vitro for effective signaling of cells (cells [3]): 10 to 100 nM
- plasma levels versus dose ([4]; 0.01, 0.05, 0.1, 0.5 and 1.0 mg/kg): directly proportional to dose
- plasma level as % of maximal concentration ([4]; 0.5 hours post-dose): approximately 18%
- plasma level as % of maximal concentration ([4]; 2 hours post-dose): ~7%
- plasma level as % of maximal concentration ([4]; 10 hours post-dose): ~1%
- well-tolerated dose ([4]; Phase I study): up to 1 mg/kg
- safety and tolerability ([4]; all dose levels 0.01-1.0 mg/kg, single dose IV over 2 hours): safe and well tolerated at all dose levels
- pharmacokinetic profile ([4]; healthy volunteers): favorable pharmacokinetic profile
- mean Cmax ([4]; over the 0.01-1.0 mg/kg dose range, IV infusion over 2 hours, 24 healthy volunteers): 10 to 1275 ng/mL
